From paper PMC8528861, “Structural and functional analysis of target recognition by the lymphocyte adaptor protein LNK” (Nature Communications, 2021)
pIC50: −log10 of the molar value. Where two headings read alike, the source gives them in different places. Where a SMILES comes first, the peptide text is derived from it. [ ]: non-standard residue; d: D form. pY = N[C@@H](Cc1ccc(OP(=O)(O)O)cc1)C(=O)O

Biological target: T1, LNK SH2 domain (Mus musculus, UniProt O09039)
T1 construct: DNA encoding the mouse LNK SH2 domain (residues 324–446) and an N-terminal NusA; NusA (N, cleaved yes); made in house; host or cells: E. coli (tuner (DE3), BL21(DE3) or C43)
Assay: SPR competition assay (immobilised IL6ST pY757 peptide)
Type: binding
Settings: for fold decrease in affinity: mutant vs WT JAK2 pY813 peptide
Description: SH2 domains typically bind ligands with a specific preference for amino acids at the −2 to +5 positions, relative to phosphotyrosine. […] To determine the contribution of individual residues, we made a series of mutations within the JAK2 phosphopeptide, and measured their affinity for the LNK SH2 domain via a surface plasmon resonance (SPR) competition assay (Fig. 3). The LNK SH2 domain was incubated with increasing concentrations of mutant JAK2 pY813 peptides before being passed over a chip coated with an immobilised low affinity phosphopeptide derived from a site on the intracellular domain of the IL-6 receptor, IL6ST. […] The +2 residue was not mutated as the structure indicates its sidechain points towards solvent.
The LNK SH2 domain has been proposed to interact with a suite of phosphorylated sites on various signalling proteins[16]–[19],[32]. […] In addition, binding to the activation loops of JAK2 and IRK, and pY785 of JAK3 were also examined. […] Given that SH2 domains will bind to most phosphorylated sequences to some degree, in line with the literature on SH2 domains and their targets[33] we applied a threshold cut-off of 2000 nM, where an IC50 over this value indicates a physiologically irrelevant interaction.
SPR competition assays were performed on either a Biacore 4000 or 200 (GE Healthcare) in 10 mM HEPES (pH 7.4), 150 mM NaCl, 3.4 mM EDTA, 0.005% Tween 20 using a streptavidin coated chip and were regenerated in 50 mM NaOH, 1 M NaCl. A biotinylated peptide representing the IL6ST pY757 sequence was immobilised to the chip by passing over 1 μg/mL of peptide dissolved in 10 mM HEPES pH 7.4, 150 mM NaCl, 3.4 mM EDA, 0.005% Tween 20. 0.1–0.5 μM of WT LNK SH2 domain was pre-incubated with 2, 1, 0.5, 0.25, 0.125 or 0 mM phosphopeptides before being flowed over the chip for 240–720 seconds at 10–30 μL/min. Data was analysed using Prism, the response of LNK in the presence of the peptide was normalised to an LNK only control and then fitted as an IC50 curve via non-linear regression.

[1] = phosphopeptide competition assay, mean of at least two technical replicates from two, three or four independent experiments, read-out: IC50

T1 sequence (O09039 324-446): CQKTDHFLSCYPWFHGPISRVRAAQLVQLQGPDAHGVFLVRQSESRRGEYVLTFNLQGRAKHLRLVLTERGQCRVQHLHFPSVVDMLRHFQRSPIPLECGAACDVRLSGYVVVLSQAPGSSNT

SMILES	pIC50 [1]	other results
CC(C)C[C@H](NC(=O)[C@@H]1CCCN1C(=O)[C@H](CC(C)C)NC(=O)[C@H](Cc1ccc(OP(=O)(O)O)cc1)NC(=O)[C@H](CO)NC(=O)[C@H](Cc1c[nH]cn1)NC(=O)[C@H](CC(N)=O)NC(=O)[C@H](C)N)C(=O)N[C@@H](CO)C(=O)N[C@@H](Cc1ccc(O)cc1)C(=O)N[C@@H](Cc1c[nH]c2ccccc12)C(=O)N[C@@H](CCC(N)=O)C(=O)O [MPL pY626] (H-ANHS[pY]LPLSYWQ-OH)		pIC50: 5.31
CC(C)C[C@H](NC(=O)[C@H](C)NC(=O)[C@H](C)NC(=O)[C@@H](NC(=O)[C@H](CC(=O)O)NC(=O)[C@H](CCCNC(=N)N)NC(=O)[C@H](CC(C)C)NC(=O)[C@H](Cc1ccc(OP(=O)(O)O)cc1)NC(=O)[C@H](CCC(N)=O)NC(=O)CNC(=O)[C@H](CC(C)C)NC(=O)[C@@H](N)C(C)C)[C@@H](C)O)C(=O)O [MPL pY552] (H-VLGQ[pY]LRDTAAL-OH; N-terminus and C-terminus assumed)		pIC50: < 5.00
CSCC[C@H](NC(=O)[C@H](CCC(N)=O)NC(=O)[C@H](CC(C)C)NC(=O)[C@H](CCC(N)=O)NC(=O)[C@H](CO)NC(=O)[C@H](CCC(=O)O)NC(=O)[C@H](Cc1ccc(OP(=O)(O)O)cc1)NC(=O)[C@H](CCCNC(=N)N)NC(=O)[C@H](Cc1ccccc1)NC(=O)[C@H](CCC(N)=O)NC(=O)[C@H](CCCCN)NC(=O)[C@H](CCCCN)NC(=O)[C@@H](N)Cc1ccc(O)cc1)C(=O)O [FLT3 pY572] (H-YKKQFR[pY]ESQLQM-OH; N-terminus and C-terminus assumed)	< 5.00	
NC(=O)C[C@H](NC(=O)[C@H](CCC(=O)O)NC(=O)[C@H](Cc1ccc(O)cc1)NC(=O)[C@@H]1CCCN1C(=O)[C@H](CC(N)=O)NC(=O)[C@H](CO)NC(=O)[C@H](Cc1ccc(OP(=O)(O)O)cc1)NC(=O)[C@@H]1CCCN1C(=O)CNC(=O)[C@H](CC(=O)O)NC(=O)[C@@H](N)CO)C(=O)N[C@@H](CO)C(=O)O [EPOR pY485] (H-SDGP[pY]SNPYENS-OH; N-terminus and C-terminus assumed)	< 5.00	
C[C@@H](O)[C@H](NC(=O)[C@@H](N)CCC(=O)O)C(=O)N[C@@H](CC(=O)O)C(=O)N[C@@H](Cc1ccc(OP(=O)(O)O)cc1)C(=O)N[C@@H](Cc1ccc(OP(=O)(O)O)cc1)C(=O)N[C@@H](CCCNC(=N)N)C(=O)N[C@@H](CCCCN)C(=O)NCC(=O)NCC(=O)N[C@@H](CCCCN)C(=O)NCC(=O)O [IRK pY1445/pY1446] (H-ETD[pY][pY]RKGGKG-OH; N-terminus and C-terminus assumed)	< 5.00	
CC(C)C[C@H](NC(=O)[C@H](CS)NC(=O)CNC(=O)[C@H](CC(N)=O)NC(=O)[C@H](CCC(N)=O)NC(=O)[C@H](Cc1ccc(OP(=O)(O)O)cc1)NC(=O)[C@H](CC(C)C)NC(=O)[C@H](Cc1c[nH]c2ccccc12)NC(=O)[C@H](CC(C)C)NC(=O)[C@@H](N)CCC(N)=O)C(=O)N[C@@H](Cc1c[nH]c2ccccc12)C(=O)N[C@@H](Cc1c[nH]c2ccccc12)C(=O)O [EPOR pY309] (H-QLWL[pY]QNGCLWW-OH; N-terminus and C-terminus assumed)	< 5.00	
CC(C)C[C@H](NC(=O)[C@H](CCC(=O)O)NC(=O)[C@H](Cc1ccc(OP(=O)(O)O)cc1)NC(=O)[C@H](CC(=O)O)NC(=O)[C@@H]1CCCN1C(=O)[C@@H](NC(=O)[C@@H](N)Cc1ccccc1)[C@@H](C)O)C(=O)N[C@@H](Cc1ccccc1)C(=O)N[C@H](C(=O)N[C@@H](CCC(=O)O)C(=O)N[C@@H](CC(N)=O)C(=O)N[C@@H](CC(=O)O)C(=O)O)[C@@H](C)O [+3F] (H-FTPD[pY]ELFTEND-OH; N-terminus and C-terminus assumed)		fold decrease in affinity: ~ 25 fold
CC(C)C[C@H](NC(=O)[C@H](CCCNC(=N)N)NC(=O)[C@H](Cc1ccc(OP(=O)(O)O)cc1)NC(=O)[C@H](CC(=O)O)NC(=O)[C@@H]1CCCN1C(=O)[C@@H](NC(=O)[C@@H](N)Cc1ccccc1)[C@@H](C)O)C(=O)N[C@@H](CC(C)C)C(=O)N[C@H](C(=O)N[C@@H](CCC(=O)O)C(=O)N[C@@H](CC(N)=O)C(=O)N[C@@H](CC(=O)O)C(=O)O)[C@@H](C)O [+1R] (H-FTPD[pY]RLLTEND-OH)		fold decrease in affinity: > 80 fold

Second part, led by results:

pIC50 [1]	SMILES	other results
< 5.00	CC(C)C[C@H](NC(=O)[C@@H]1CCCN1C(=O)[C@@H](N)CC(C)C)C(=O)N[C@@H](CO)C(=O)N[C@@H](Cc1ccc(OP(=O)(O)O)cc1)C(=O)N[C@@H](Cc1c[nH]c2ccccc12)C(=O)N[C@@H](CCC(N)=O)C(=O)N[C@@H](CCC(N)=O)C(=O)N1CCC[C@H]1C(=O)O [MPL pY631] (H-LPLS[pY]WQQP-OH; N-terminus and C-terminus assumed)	
< 5.00	CC[C@H](C)[C@H](NC(=O)[C@H](C)N)C(=O)N[C@@H](CCC(=O)O)C(=O)N[C@H](C(=O)N[C@@H](CC(=O)O)C(=O)N[C@@H](CCCCN)C(=O)N[C@@H](CCC(=O)O)C(=O)N[C@@H](Cc1ccc(OP(=O)(O)O)cc1)C(=O)N[C@@H](Cc1ccc(OP(=O)(O)O)cc1)C(=O)N[C@@H](CCCCN)C(=O)N[C@H](C(=O)N[C@@H](CCCCN)C(=O)N[C@@H](CCC(=O)O)C(=O)N1CCC[C@H]1C(=O)NCC(=O)O)C(C)C)[C@@H](C)O [JAK2 pY1007/pY1008] (H-AIETDKE[pY][pY]KVKEPG-OH; N-terminus and C-terminus assumed)	
5.42	CC[C@H](C)[C@H](NC(=O)[C@H](Cc1ccc(OP(=O)(O)O)cc1)NC(=O)[C@H](CCC(=O)O)NC(=O)[C@H](Cc1c[nH]cn1)NC(=O)CN)C(=O)N[C@@H](Cc1ccc(O)cc1)C(=O)N[C@H](C(=O)N[C@@H](CC(=O)O)C(=O)N1CCC[C@H]1C(=O)O)C(C)C [PDGFR pY572] (H-GHE[pY]IYVDP-OH)	
< 5.00	CSCC[C@H](NC(=O)[C@H](CC(=O)O)NC(=O)[C@H](CCC(N)=O)NC(=O)[C@H](C)N)C(=O)N[C@@H](Cc1ccc(OP(=O)(O)O)cc1)C(=O)N[C@@H](CCCNC(=N)N)C(=O)N[C@@H](CCCNC(=N)N)C(=O)N[C@@H](CC(C)C)C(=O)N[C@@H](CCC(N)=O)C(=O)N1CCC[C@H]1C(=O)N[C@@H](CO)C(=O)N[C@@H](CS)C(=O)O [MPL pY591] (H-AQDM[pY]RRLQPSC-OH; N-terminus and C-terminus assumed)	
5.71	CC[C@H](C)[C@H](NC(=O)[C@H](Cc1ccc(O)cc1)NC(=O)[C@@H](NC(=O)[C@H](Cc1ccc(OP(=O)(O)O)cc1)NC(=O)[C@H](CC(N)=O)NC(=O)[C@H](CC(N)=O)NC(=O)CN)C(C)C)C(=O)N[C@@H](CC(=O)O)C(=O)N1CCC[C@H]1C(=O)O [c-KIT pY568] (H-GNN[pY]VYIDP-OH)	
< 5.00	CC[C@H](C)[C@H](NC(=O)[C@H](C)N)C(=O)N[C@@H](CCC(=O)O)C(=O)N[C@H](C(=O)N[C@@H](CC(=O)O)C(=O)N[C@@H](CCCCN)C(=O)N[C@@H](CCC(=O)O)C(=O)N[C@@H](Cc1ccc(OP(=O)(O)O)cc1)C(=O)N[C@@H](Cc1ccc(O)cc1)C(=O)N[C@@H](CCCCN)C(=O)N[C@H](C(=O)N[C@@H](CCCCN)C(=O)N[C@@H](CCC(=O)O)C(=O)N1CCC[C@H]1C(=O)NCC(=O)O)C(C)C)[C@@H](C)O [JAK2 pY1007] (H-AIETDKE[pY]YKVKEPG-OH; N-terminus and C-terminus assumed)	
< 5.00	CC(C)C[C@H](NC(=O)[C@H](CC(N)=O)NC(=O)[C@@H](NC(=O)[C@H](Cc1ccc(OP(=O)(O)O)cc1)NC(=O)[C@H](CC(=O)O)NC(=O)[C@H](CCCNC(=N)N)NC(=O)[C@@H](N)CCC(=O)O)[C@@H](C)O)C(=O)N1CCC[C@H]1C(=O)N[C@@H](CO)C(=O)O [c-FMS pY923] (H-ERD[pY]TNLPS-OH; N-terminus and C-terminus assumed)	
